Source: PubChem BioAssay AID1919001 (Molecular Pharmacology Branch, DTP, NCI, 2023)

Tested on: 699152-130-R-J1-PDC complex spheroid growth
Experiment: Anticancer human tumor 699152-130-R-J1-PDC patient-derived pancreatic carcinoma cell line growth inhibition [AhR]
Conditions: for IC50: curve of first compound; for viability, T/C: stronger effect = lower value; active = viability on the fitted dose curve at most 10% of control; inactive = the rest
In short: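 Spheroids combined tumor cells with HUVEC endothelial cells and human MSCs as stroma. AhR antagonists were paired with standard or investigational drugs, each dosed in half-log steps down from near clinical Cmax, or from 10 microM where Cmax was unknown.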
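Also: compound exposure lasted 7 days after spheroids had grown for 3 days.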

CC1(C)CCC(CN2CCN(c3ccc(C(=O)NS(=O)(=O)c4ccc(NCC5CCOCC5)c([N+](=O)[O-])c4)c(Oc4cnc5[nH]ccc5c4)c3)CC2)=C(c2ccc(Cl)cc2)C1 + Cc1ccccc1N=Nc1ccc(NC(=O)c2ccnn2C)c(C)c1
> 10 µM: IC50 (second compound 0.1 µM) | IC50 (second compound 0.316 µM) | IC50 (second compound 1 µM) | IC50 (second compound 3.16 µM) | IC50 (second compound 10 µM)
inactive: viability, T/C (second compound 0.1 µM, first compound 0.0316 µM) 93.7% | viability, T/C (second compound 0.1 µM, first compound 0.1 µM) 102% | viability, T/C (second compound 0.1 µM, first compound 0.316 µM) 103% | viability, T/C (second compound 0.1 µM, first compound 1 µM) 95.9% | viability, T/C (second compound 0.1 µM, first compound 3.16 µM) 101% | viability, T/C (second compound 0.1 µM, first compound 10 µM) 68% | viability, T/C (second compound 0.316 µM, first compound 0.0316 µM) 93.2% | viability, T/C (second compound 0.316 µM, first compound 0.1 µM) 103% | viability, T/C (second compound 0.316 µM, first compound 0.316 µM) 95.9% | viability, T/C (second compound 0.316 µM, first compound 1 µM) 95.5% | viability, T/C (second compound 0.316 µM, first compound 3.16 µM) 93.5% | viability, T/C (second compound 0.316 µM, first compound 10 µM) 74% | viability, T/C (second compound 1 µM, first compound 0.0316 µM) 103% | viability, T/C (second compound 1 µM, first compound 0.1 µM) 101% | viability, T/C (second compound 1 µM, first compound 0.316 µM) 104% | viability, T/C (second compound 1 µM, first compound 1 µM) 102% | viability, T/C (second compound 1 µM, first compound 3.16 µM) 101% | viability, T/C (second compound 1 µM, first compound 10 µM) 65.8% | viability, T/C (second compound 3.16 µM, first compound 0.0316 µM) 107% | viability, T/C (second compound 3.16 µM, first compound 0.1 µM) 95.2% | viability, T/C (second compound 3.16 µM, first compound 0.316 µM) 118% | viability, T/C (second compound 3.16 µM, first compound 1 µM) 102% | viability, T/C (second compound 3.16 µM, first compound 3.16 µM) 86.5% | viability, T/C (second compound 3.16 µM, first compound 10 µM) 71.8% | viability, T/C (second compound 10 µM, first compound 0.0316 µM) 114% | viability, T/C (second compound 10 µM, first compound 0.1 µM) 124% | viability, T/C (second compound 10 µM, first compound 0.316 µM) 118% | viability, T/C (second compound 10 µM, first compound 1 µM) 113% | viability, T/C (second compound 10 µM, first compound 3.16 µM) 108% | viability, T/C (second compound 10 µM, first compound 10 µM) 68.2%

CCN(c1cc(-c2ccc(CN3CCOCC3)cc2)cc(C(=O)NCc2c(C)cc(C)[nH]c2=O)c1C)C1CCOCC1 + Cc1ccccc1N=Nc1ccc(NC(=O)c2ccnn2C)c(C)c1
inactive: viability, T/C (second compound 0.1 µM, first compound 0.00949 µM) 111% | viability, T/C (second compound 0.1 µM, first compound 0.03 µM) 113% | viability, T/C (second compound 0.1 µM, first compound 0.0949 µM) 108% | viability, T/C (second compound 0.1 µM, first compound 0.3 µM) 104% | viability, T/C (second compound 0.1 µM, first compound 0.949 µM) 109% | viability, T/C (second compound 0.1 µM, first compound 3 µM) 104% | viability, T/C (second compound 0.316 µM, first compound 0.00949 µM) 91.2% | viability, T/C (second compound 0.316 µM, first compound 0.03 µM) 95.6% | viability, T/C (second compound 0.316 µM, first compound 0.0949 µM) 102% | viability, T/C (second compound 0.316 µM, first compound 0.3 µM) 105% | viability, T/C (second compound 0.316 µM, first compound 0.949 µM) 109% | viability, T/C (second compound 0.316 µM, first compound 3 µM) 114% | viability, T/C (second compound 1 µM, first compound 0.00949 µM) 118% | viability, T/C (second compound 1 µM, first compound 0.03 µM) 105% | viability, T/C (second compound 1 µM, first compound 0.0949 µM) 109% | viability, T/C (second compound 1 µM, first compound 0.3 µM) 109% | viability, T/C (second compound 1 µM, first compound 0.949 µM) 90.8% | viability, T/C (second compound 1 µM, first compound 3 µM) 118% | viability, T/C (second compound 3.16 µM, first compound 0.00949 µM) 97.1% | viability, T/C (second compound 3.16 µM, first compound 0.03 µM) 104% | viability, T/C (second compound 3.16 µM, first compound 0.0949 µM) 108% | viability, T/C (second compound 3.16 µM, first compound 0.3 µM) 98.7% | viability, T/C (second compound 3.16 µM, first compound 0.949 µM) 99.7% | viability, T/C (second compound 3.16 µM, first compound 3 µM) 101% | viability, T/C (second compound 10 µM, first compound 0.00949 µM) 113% | viability, T/C (second compound 10 µM, first compound 0.03 µM) 113% | viability, T/C (second compound 10 µM, first compound 0.0949 µM) 118% | viability, T/C (second compound 10 µM, first compound 0.3 µM) 124% | viability, T/C (second compound 10 µM, first compound 0.949 µM) 127% | viability, T/C (second compound 10 µM, first compound 3 µM) 113%
> 3 µM: IC50 (second compound 0.1 µM) | IC50 (second compound 0.316 µM) | IC50 (second compound 1 µM) | IC50 (second compound 3.16 µM) | IC50 (second compound 10 µM)
